Patent EP0371730A1, “Dopamine-B-Hydroxylase inhibitors” (SMITHKLINE BEECHAM CORPORATION, priority 1988, dated 1990)

What was measured:
[1] = tested on: spontaneously hypertensive rats; assay: mean arterial blood pressure in spontaneously hypertensive rats; assay type: in vivo; settings: 50 mg/kg intraperitoneally, compared to vehicle-treated controls
Procedure: Further, spontaneously hypertensive rats were treated with 1-(2-imidazolylmethyl)-1,3-dihydro-2H-imidazole-2-thione at a dose of 50 mg/kg intraperitoneally, and mean arterial blood pressure was monitored for 250 minutes using indwelling cannulae in the tail arteries. […] The maximal blood pressure reduction was approximately 40 mmHg.

DBH = target: T1, DBH (Homo sapiens, UniProt P09172); settings: as reported by Runti et al.; cited from earlier work
T1 sequence (P09172 1-617): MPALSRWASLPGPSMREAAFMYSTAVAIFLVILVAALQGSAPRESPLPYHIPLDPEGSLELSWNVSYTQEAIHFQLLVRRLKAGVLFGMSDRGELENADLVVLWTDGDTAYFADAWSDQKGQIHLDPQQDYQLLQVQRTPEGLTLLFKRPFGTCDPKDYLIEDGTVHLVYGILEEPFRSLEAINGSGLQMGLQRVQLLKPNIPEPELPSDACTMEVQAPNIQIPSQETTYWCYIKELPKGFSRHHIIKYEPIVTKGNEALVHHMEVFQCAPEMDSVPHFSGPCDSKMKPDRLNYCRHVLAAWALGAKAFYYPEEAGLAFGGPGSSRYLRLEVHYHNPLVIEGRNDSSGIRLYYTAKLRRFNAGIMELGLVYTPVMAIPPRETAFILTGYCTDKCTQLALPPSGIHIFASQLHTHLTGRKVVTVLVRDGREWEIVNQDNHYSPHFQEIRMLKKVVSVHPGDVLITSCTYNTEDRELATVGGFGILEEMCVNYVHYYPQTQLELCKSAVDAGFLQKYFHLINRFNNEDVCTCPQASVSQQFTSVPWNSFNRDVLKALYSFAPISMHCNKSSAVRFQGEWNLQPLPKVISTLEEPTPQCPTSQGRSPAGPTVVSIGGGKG

[2] = see Teresawa et al.; cited from earlier work

In the case of S=c1[nH]ccn1Cc1ncc[nH]1 [1-(2-Imidazolylmethyl)-1,3-dihydro-2H-imidazole-2-thione], the “time to significant blood pressure reductions following treatment” value [1] is reported as no more than 30 min and the “maximal blood pressure reduction” value ([1]; mean arterial blood pressure monitored for 250 minutes) is reported as “approximately 40 mmHg”.

In the case of phenylpicolinic acid, the “inhibitory activity relative to fusaric acid” value (DBH) is listed as “twice the inhibitory activity of fusaric acid”.

For CCCCc1ccc(C(=O)O)nc1 [Fusaric acid], the hepatotoxicity [2] is given as “hepatotoxic”.
